# Measured values as given in patent publication US6531496B1 (Bayer Aktiengesellschaft, priority 1999, dated 2003).
# System: not listed separately
# Test: logP by HPLC (EEC Directive 79/831 Annex V. A8, gradient method)
# Format: physicochemical
# Details: HPLC, gradient method, acetonitrile/0.1% aqueous phosphoric acid; Table 1
row,logP,Structure (SMILES)
1,4.28,CCCCc1oc2ccccc2c1C(=O)c1ccc(OC2=NS(=O)(=O)CS2)cc1 [Example 71]
2,1.61,COC(=O)c1ccc(N=Cc2cccc(OC3=NS(=O)(=O)CS3)c2)cc1 [Example 76]
3,4.15,O=S1(=O)CSC(Oc2cccc(C(=NOCc3ccccc3)c3ccccc3)c2)=N1 [Example 44]
4,1.95,CC(=O)c1cc(OC2=NS(=O)(=O)CS2)cc([N+](=O)[O-])c1 [Example 74]
5,2.83,Cc1cc(S(=O)(=O)c2ccccc2)cc(Cl)c1OC1=NS(=O)(=O)CS1 [Example 120]
6,2.01,N#CSCC(=O)c1ccc(OC2=NS(=O)(=O)CS2)cc1 [Example 55]
7,3.07,O=S1(=O)CSC(Oc2ccc(SC(F)(F)F)cc2)=N1 [Example 135]
8,3.43,CSc1nnc(C(C)(C)C)c(=O)n1N=Cc1cccc(OC2=NS(=O)(=O)CS2)c1 [Example 69]
9,1.69,N#Cc1cccc(OC2=NS(=O)(=O)CS2)c1 [Example 109]
10,1.68,N#CCc1ccccc1OC1=NS(=O)(=O)CS1 [Example 8]
11,2.57,Cc1cccc(C)c1OC1=NS(=O)(=O)CS1 [Example 123]
12,3.28,O=[N+]([O-])c1ccc(Sc2ccc(OC3=NS(=O)(=O)CS3)cc2)cc1 [Example 121]
13,2.61,COc1cc(Cl)cc(OC2=NS(=O)(=O)CS2)c1 [Example 116]
14,1.7,COC(=O)C(=NOCC#N)c1ccccc1OC1=NS(=O)(=O)CS1 [Example 7]
15,3.94,Cc1cc(OC2=NS(=O)(=O)CS2)ccc1Sc1ccc([N+](=O)[O-])cc1C [Example 84]
16,2,CCN(CC)C(=O)c1ccc(OC2=NS(=O)(=O)CS2)c(NC)c1 [Example 64]
17,2.55,Cc1cc(OC2=NS(=O)(=O)CS2)cc(C)c1SC#N [Example 60]
18,1.39,O=S1(=O)CSC(Oc2cccc(CCO)c2)=N1 [Example 90]
19,1.23,O=S1(=O)CSC(Oc2cccc(CO)c2)=N1 [Example 46]
20,3.67,CC(=NOCc1ccccc1)c1cccc(OC2=NS(=O)(=O)CS2)c1 [Example 25]

row,logP,Structure (SMILES)
1,2.46,CC(=Cc1cccc(OC2=NS(=O)(=O)CS2)c1)[N+](=O)[O-] (mixture of isomers) [Example 89]
2,2.87,CCCCCC(O)c1cccc(OC2=NS(=O)(=O)CS2)c1 (racemic) [Example 82]
3,1.88,COc1cc(OC2=NS(=O)(=O)CS2)ccc1C(C)=O [Example 58]
4,0.83,Cc1cc(OC2=NS(=O)(=O)CS2)ccc1N [Example 137]
5,3.39,Cc1cc(OC2=NS(=O)(=O)CS2)ccc1SC(F)(F)F [Example 52]
6,2.66,CC(C)(C)c1cc(OC2=NS(=O)(=O)CS2)ccc1O [Example 34]
7,2.64,O=S1(=O)CSC(Oc2ccc(C(F)(F)F)cc2)=N1 [Example 132]
8,2.33,CN=Cc1ccc(OC2=NS(=O)(=O)CS2)cc1 [Example 53]
9,2.62,O=S1(=O)CSC(Oc2cccc(C(F)(F)F)c2)=N1 [Example 113]
10,3.47,O=S1(=O)CSC(Oc2ccc(N=Nc3ccccc3)cc2)=N1 [Example 47]
11,2.79,O=S1(=O)CSC(Oc2ccc(OC(F)(F)F)cc2)=N1 [Example 124]
12,3.72,O=C(c1ccc(OC2=NS(=O)(=O)CS2)cc1)c1ccc(-c2ccccc2)cc1 [Example 70]
13,1.77,CON=C(C1=NOCCO1)c1ccccc1OC1=NS(=O)(=O)CS1 [Example 4]
14,2.35,O=S1(=O)CSC(Oc2cccc(OC(F)(F)F)c2)=N1 [Example 134]
15,1.54,CCS(=O)(=O)c1ccc(OC2=NS(=O)(=O)CS2)cc1 [Example 59]
16,2.04,CCC(=O)c1ccccc1OC1=NS(=O)(=O)CS1 [Example 57]
17,3.96,O=S1(=O)CSC(Oc2ccc(N=Nc3ccccc3)cc2Cl)=N1 [Example 48]
18,2.43,CON=C(C)c1cc(OC2=NS(=O)(=O)CS2)ccc1OC1=NS(=O)(=O)CS1 [Example 30]
19,3.62,COc1cc(C=Cc2ccccc2)cc(OC2=NS(=O)(=O)CS2)c1 (mixture of isomers) [Example 87]
20,3.15,C=CCON=C(C)c1ccc(OC2=NS(=O)(=O)CS2)cc1 [Example 23]

row,logP,Structure (SMILES)
1,1.79,CCOC(=O)NN=Cc1cccc(OC2=NS(=O)(=O)CS2)c1 [Example 36]
2,2.13,CON=C(C(=O)NCc1ccccc1)c1ccccc1OC1=NS(=O)(=O)CS1 [Example 9]
3,1.86,CCOC(=O)NN=C(C)c1ccc(OC2=NS(=O)(=O)CS2)cc1 [Example 72]
4,1.33,CON=C(C(N)=O)c1ccccc1OC1=NS(=O)(=O)CS1 [Example 11]
5,3.06,O=C(C=Cc1ccccc1)c1ccc(OC2=NS(=O)(=O)CS2)cc1 [Example 67]
6,2.91,Cc1nc(Sc2ccc(OC3=NS(=O)(=O)CS3)cc2)sc1C [Example 62]
7,2.18,CON=C(C(=O)NOCc1ccccc1)c1ccccc1OC1=NS(=O)(=O)CS1 [Example 10]
8,3.28,O=[N+]([O-])c1ccc(C=Cc2cccc(OC3=NS(=O)(=O)CS3)c2[N+](=O)[O-])cc1 (mixture of isomers) [Example 85]
9,2.67,COc1ccc(C(=O)c2ccc(OC3=NS(=O)(=O)CS3)cc2)cc1 [Example 66]
10,2.76,O=C(Cc1ccccc1)c1ccc(OC2=NS(=O)(=O)CS2)cc1 [Example 65]
11,1.69,O=S1(=O)CSC(Oc2ccccc2CC2=NOCCO2)=N1 [Example 6]
12,4.4,CC(C)(C)ON=C(c1ccccc1)c1cccc(OC2=NS(=O)(=O)CS2)c1 [Example 43]
13,2.88,O=S1(=O)CSC(Oc2ccc(-c3nc4ccccc4o3)cc2)=N1 [Example 45]
14,2.02,COc1ccccc1OC1=NS(=O)(=O)CS1 [Example 136]
15,2.12,COc1cccc(OC2=NS(=O)(=O)CS2)c1OC [Example 118]
16,2.7,CC(C)Oc1ccccc1OC1=NS(=O)(=O)CS1 [Example 129]
17,1.59,COC(=O)c1ccc(N=Cc2ccc(OC3=NS(=O)(=O)CS3)cc2)cc1 [Example 68]
18,1.59,N#CC(C#N)=Cc1cccc(OC2=NS(=O)(=O)CS2)c1 [Example 38]

# Same assay, conditions: Table 2
row,chromatographic logP,Structure (SMILES)
1,2.65,Cc1c(C(=O)O)c2cc(OC3=NS(=O)(=O)CS3)ccc2n1C [Example 144]
2,2.52,O=c1c2ccccc2oc2cc(OC3=NS(=O)(=O)CS3)ccc12 [Example 152]
3,2.66,CC1(C)Cc2cccc(OC3=NS(=O)(=O)CS3)c2O1 [Example 158]
4,3.31,O=S1(=O)CSC(Oc2cccc3sc4ccccc4c23)=N1 [Example 153]
5,1.55,CN1C(=O)Nc2cc(OC3=NS(=O)(=O)CS3)ccc2SC1=O [Example 149]
6,2.31,COC(=O)/C(C#N)=C1/Oc2ccc(OC3=NS(=O)(=O)CS3)cc2S1 [Example 151]
7,2.6,CC1(C)Oc2cccc(OC3=NS(=O)(=O)CS3)c2O1 [Example 150]
8,2.77,O=c1oc2cc(OC3=NS(=O)(=O)CS3)ccc2cc1-c1ccccc1 [Example 147]
9,2.8,O=S1(=O)CSC(Oc2ccc3c(c2)CCC3)=N1 [Example 157]
10,1.93,O=S1(=O)CSC(Oc2ccc3c(c2)Nc2ccccc2S3(=O)=O)=N1 [Example 154]
11,3.43,COC(=O)c1c(-c2ccc(-c3ccccc3)cc2)oc2ccc(OC3=NS(=O)(=O)CS3)cc12 [Example 146]

# Same assay, conditions: Table 3, intermediates of formula (II-a)
row,chromatographic logP,Structure (SMILES)
1,2.63,O=S1(=O)CC(c2ccccc2)SC(Cl)=N1 (stereo not shown) [II-a-1]
2,2.75,CC1(c2ccccc2)CS(=O)(=O)N=C(Cl)S1 (stereo not shown) [II-a-2]

# Same assay, conditions: Table 4, starting materials of formula (IV)
row,chromatographic logP,Structure (SMILES)
1,2.65,CSC1=NS(=O)(=O)CC(C)(c2ccccc2)S1 (stereo not shown) [IV-5]
2,2.54,CSC1=NS(=O)(=O)CC(c2ccccc2)S1 (stereo not shown) [IV-6]
3,2.8,CSC1=NS(=O)(=O)C(C(C)C)S1 (stereo not shown) [IV-4]

# Same assay, conditions: gradient of acetonitrile/0.1% aqueous phosphoric acid; HPLC, gradient method, acetonitrile/0.1% aqueous phosphoric acid; Table 1
row,chromatographic logP,Structure (SMILES)
1,1.84,O=[N+]([O-])c1ccccc1OC1=NS(=O)(=O)CS1 [Example 128]
2,1.69,CC(=O)c1ccc(OC2=NS(=O)(=O)CS2)cc1 [Example 21]
3,2.47,O=S1(=O)CSC(Oc2cccc(Br)c2)=N1 [Example 119]
4,3.28,CO/N=C(/c1ccccc1)c1cccc(OC2=NS(=O)(=O)CS2)c1 [Example 41]
5,3.72,C=CCO/N=C(/c1ccccc1)c1cccc(OC2=NS(=O)(=O)CS2)c1 [Example 42]
6,2.65,Cc1ccc(OC2=NS(=O)(=O)CS2)c(C)c1 [Example 127]

# System: Plasmopara viticola
# Test: Plasmopara test (grapevine)/protective
# Format: in vivo
# Details: 144 h, protective, evaluated 6 days after inoculation, read-out: Efficacy in %
# Description: Plasmopara Test (Grapevine)/Protective Solvent: 47 parts by weight of acetone Emulsifier: 3 parts by weight of alkylaryl polyglycol ether To prepare a suitable active compound preparation, 1 part by weight of active compound is mixed with the stated amounts of solvent and emulsifier, and the concentrate is diluted with water to the desired concentration. To test for protective activity, young plants are sprayed with the active compound preparation at the application rate stated. After the spray coating has dried on, the plants are inoculated with an aqueous spore suspension of Plasmopara viticola and then remain for 1 day in an incubation cabinet at approx. 20° C. and a relative atmospheric humidity of 100%. […] The plants are then moistened and placed in an incubation cabinet for 1 day.
row,Structure (SMILES),pest or weed control at 250 g/ha
1,O=S1(=O)CSC(Oc2c(Cl)cccc2Cl)=N1 [Example 102],≥ 90%
2,O=[N+]([O-])c1ccccc1OC1=NS(=O)(=O)CS1 [Example 128],≥ 90%
3,CC(C)(C)c1ccc(OC2=NS(=O)(=O)CS2)cc1 [Example 98],≥ 90%
4,CC(=O)c1ccc(OC2=NS(=O)(=O)CS2)cc1 [Example 21],≥ 90%
5,O=S1(=O)CSC(Oc2cccc(Br)c2)=N1 [Example 119],≥ 90%
6,CO/N=C(/c1ccccc1)c1cccc(OC2=NS(=O)(=O)CS2)c1 [Example 41],≥ 90%
7,O=S1(=O)CSC(Oc2ccc(Cl)cc2Cc2ccccc2)=N1 [Example 99],≥ 90%
8,C=CCO/N=C(/c1ccccc1)c1cccc(OC2=NS(=O)(=O)CS2)c1 [Example 42],≥ 90%
